Assay results: ChEMBL document CHEMBL4049438, “Discovery and Optimization of Isoquinoline Ethyl Ureas as Antibacterial Agents” (J Med Chem, 2017)
Converted amounts (≈) assume the structure as drawn. The source made the active and inactive calls. No cut-off for these calls is given here.

What was measured:
[1] = Inhibition of Escherichia coli N-terminal His6-tagged DNA gyrase subunit GyrA/GyrB supercoiling activity expressed in Escherichia coli BL21 (DE3) using relaxed pBR322 DNA as substrate after 1 hr by agarose gel electrophoresis
[2] = Inhibition of Escherichia coli N-terminal His6-tagged DNA gyrase subunit GyrA/GyrB ATPase activity expressed in Escherichia coli BL21 (DE3) after 40 mins by spectrophotometric analysis
Escherichia coli [3] = experiment: Antibacterial activity against TolC deficient Escherichia coli by broth microdilution method; assay type: functional
[4] = Inhibition of Escherichia coli DNA topoisomerase 4 subunit ParC/ParE relaxation expressed in Escherichia coli BL21 (DE3) using supercoiled pBR322 DNA as substrate after 1 hr by agarose gel electrophoresis
DNA gyrase = DNA gyrase (Staphylococcus aureus, UniProt P0A0K8+P20831)
DNA gyrase, sequence (P0A0K8 whole entry): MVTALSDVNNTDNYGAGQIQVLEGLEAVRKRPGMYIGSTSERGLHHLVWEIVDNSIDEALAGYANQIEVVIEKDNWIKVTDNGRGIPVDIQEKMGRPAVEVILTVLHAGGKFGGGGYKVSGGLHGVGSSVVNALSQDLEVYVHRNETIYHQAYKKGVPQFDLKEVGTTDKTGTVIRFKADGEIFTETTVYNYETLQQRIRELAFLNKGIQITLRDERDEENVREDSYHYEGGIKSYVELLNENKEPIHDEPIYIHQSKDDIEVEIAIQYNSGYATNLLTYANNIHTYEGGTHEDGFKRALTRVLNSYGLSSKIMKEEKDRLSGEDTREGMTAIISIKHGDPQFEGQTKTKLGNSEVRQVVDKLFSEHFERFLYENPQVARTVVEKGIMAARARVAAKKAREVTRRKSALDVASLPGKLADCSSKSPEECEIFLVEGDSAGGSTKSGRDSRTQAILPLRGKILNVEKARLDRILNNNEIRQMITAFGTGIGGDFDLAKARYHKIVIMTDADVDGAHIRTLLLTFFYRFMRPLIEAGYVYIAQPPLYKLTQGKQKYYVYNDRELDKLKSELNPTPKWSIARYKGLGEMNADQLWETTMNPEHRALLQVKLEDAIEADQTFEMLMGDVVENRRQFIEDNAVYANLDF
DNA gyrase, sequence (P20831 whole entry): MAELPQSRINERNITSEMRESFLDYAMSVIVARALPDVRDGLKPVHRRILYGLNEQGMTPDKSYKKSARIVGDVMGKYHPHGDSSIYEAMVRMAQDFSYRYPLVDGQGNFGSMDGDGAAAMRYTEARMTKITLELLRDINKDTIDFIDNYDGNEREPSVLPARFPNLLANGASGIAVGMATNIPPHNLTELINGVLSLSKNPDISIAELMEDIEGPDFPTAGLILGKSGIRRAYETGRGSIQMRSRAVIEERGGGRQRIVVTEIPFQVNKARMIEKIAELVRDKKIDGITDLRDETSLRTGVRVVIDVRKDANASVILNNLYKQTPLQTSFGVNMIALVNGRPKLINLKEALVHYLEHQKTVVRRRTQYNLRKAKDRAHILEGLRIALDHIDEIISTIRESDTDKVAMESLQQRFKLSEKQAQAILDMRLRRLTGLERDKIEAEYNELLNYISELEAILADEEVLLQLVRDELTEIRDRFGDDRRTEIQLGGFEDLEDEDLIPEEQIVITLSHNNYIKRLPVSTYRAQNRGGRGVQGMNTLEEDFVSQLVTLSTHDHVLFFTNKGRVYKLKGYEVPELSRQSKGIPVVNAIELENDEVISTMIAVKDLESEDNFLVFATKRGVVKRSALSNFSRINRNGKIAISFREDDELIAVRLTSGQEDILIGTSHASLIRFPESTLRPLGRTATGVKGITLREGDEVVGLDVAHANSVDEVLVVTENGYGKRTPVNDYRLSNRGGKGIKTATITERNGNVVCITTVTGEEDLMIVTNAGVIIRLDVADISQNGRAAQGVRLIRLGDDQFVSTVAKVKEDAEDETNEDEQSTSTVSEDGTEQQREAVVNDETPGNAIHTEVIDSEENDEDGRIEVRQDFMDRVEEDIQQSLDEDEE
Description: Inhibition of Staphylococcus aureus N-terminal His6-tagged DNA gyrase subunit GyrA/GyrB supercoiling activity expressed in Escherichia coli BL21 (DE3) using relaxed pBR322 DNA as substrate after 1 hr by agarose gel electrophoresis

Staphylococcus aureus [5] = experiment: Antibacterial activity against Staphylococcus aureus ATCC 29213 by broth microdilution method; assay type: functional
[6] = Inhibition of Staphylococcus aureus topoisomerase 4 subunit ParC/ParE relaxation expressed in Escherichia coli BL21 (DE3) using supercoiled pBR322 DNA as substrate after 1 hr by agarose gel electrophoresis
Escherichia coli [7] = experiment: Inhibition of Escherichia coli N-terminal His6-tagged DNA gyrase subunit GyrA/GyrB ATPase activity at 100 to 500 uM after 40 mins by spectrophotometric analysis
hERG (KCNH2) = hERG (KCNH2) (Homo sapiens, UniProt Q12809); experiment: Inhibition of human ERG expressed in CHO cells at 10 uM after 3 mins at -80 mV holding potential by Qpatch assay; assay type: cell-based; details: CHO cells expressing human ERG
hERG (KCNH2), sequence (Q12809 whole entry): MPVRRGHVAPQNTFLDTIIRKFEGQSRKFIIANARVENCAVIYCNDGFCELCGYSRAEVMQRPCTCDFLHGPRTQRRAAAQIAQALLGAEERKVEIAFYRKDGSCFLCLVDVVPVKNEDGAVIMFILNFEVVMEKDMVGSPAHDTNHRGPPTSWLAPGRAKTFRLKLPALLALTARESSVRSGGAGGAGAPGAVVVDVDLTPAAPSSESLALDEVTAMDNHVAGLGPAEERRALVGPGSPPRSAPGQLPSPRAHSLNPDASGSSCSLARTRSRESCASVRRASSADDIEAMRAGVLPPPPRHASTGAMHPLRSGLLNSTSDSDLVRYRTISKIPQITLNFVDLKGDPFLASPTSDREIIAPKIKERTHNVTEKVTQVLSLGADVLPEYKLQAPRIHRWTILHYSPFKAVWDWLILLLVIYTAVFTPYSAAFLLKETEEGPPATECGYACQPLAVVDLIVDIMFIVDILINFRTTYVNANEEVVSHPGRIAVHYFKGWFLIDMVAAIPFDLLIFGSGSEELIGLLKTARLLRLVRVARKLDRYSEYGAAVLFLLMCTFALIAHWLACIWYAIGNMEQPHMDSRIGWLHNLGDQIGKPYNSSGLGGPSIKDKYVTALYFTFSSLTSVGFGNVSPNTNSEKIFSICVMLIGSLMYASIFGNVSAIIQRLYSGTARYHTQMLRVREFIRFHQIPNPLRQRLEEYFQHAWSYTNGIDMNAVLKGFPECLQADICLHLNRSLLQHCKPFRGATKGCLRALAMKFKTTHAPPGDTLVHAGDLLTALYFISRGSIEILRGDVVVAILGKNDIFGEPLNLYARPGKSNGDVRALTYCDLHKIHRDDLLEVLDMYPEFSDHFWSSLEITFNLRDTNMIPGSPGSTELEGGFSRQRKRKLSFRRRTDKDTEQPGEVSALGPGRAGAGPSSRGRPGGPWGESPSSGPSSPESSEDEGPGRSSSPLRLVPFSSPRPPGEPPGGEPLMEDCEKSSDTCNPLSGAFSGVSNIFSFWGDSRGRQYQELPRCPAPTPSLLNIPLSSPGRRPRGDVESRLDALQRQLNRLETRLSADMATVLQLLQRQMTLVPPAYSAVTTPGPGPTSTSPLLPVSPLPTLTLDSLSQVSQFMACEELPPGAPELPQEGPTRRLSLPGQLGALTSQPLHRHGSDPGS

[8] = Octanol-phosphate buffer partition coefficient, logD of compound at pH 7.4 by LC/UV analysis; assay type: physicochemical
[9] = Dissociation constant, pKa of the compound by pH metric assay; assay type: physicochemical
Staphylococcus aureus [10] = experiment: Antibacterial activity against methicillin-sensitive Staphylococcus aureus A-1178 infected in neutropenic mouse assessed as change in bacterial burden in thighs at 30 mg/kg, po administered every 2.75 hrs for 2 times measured 6.5 hrs post infection; assay type: functional

| Structure (SMILES) | IC50 [1] [nM] | IC50 [2] [nM] | MIC (Escherichia coli [3]) [µg/mL] | IC50 [4] [nM] | IC50 (DNA gyrase) [nM] | MIC (Staphylococcus aureus [5]) [µg/mL] | IC50 [6] [nM] | inhibition (Escherichia coli [7]) | inhibition at 0.05 h, 10 µM (hERG (KCNH2)) [%] | logD [8] | pKa [9] | Activity (Staphylococcus aureus [10]) [deltalog10CFU] |
| --- | --- | --- | --- | --- | --- | --- | --- | --- | --- | --- | --- | --- |
| CCNC(=O)Nc1cc2c(-c3cnn(C)c3)ccc(C)c2cn1.Cl | 8000 | < 200 | 16 | 32000 | 125 | 4 | > 256000 |  |  |  |  |  |
| CCNC(=O)Nc1ccccn1 |  | > 200000 |  |  |  |  |  | Active |  |  |  |  |
| CCNC(=O)Nc1cc2c(-c3ccncc3)ccc(CNC(=O)OCCNC)c2cn1 |  |  |  |  | 30 | > 32 | 2000 |  | 3 | 0.2 | 9 |  |
| CCNC(=O)Nc1cc2c(-c3ccnc(C)c3)ccc(CNC(=O)OCCO)c2cn1 |  |  |  |  | 30 | 1 (≈ 2.36 µM) | 8000 |  | 19 | 2.5 |  |  |
| CCNC(=O)Nc1cc2c(-c3cncnc3)ccc(C)c2cn1 | 2000 | < 200 | > 32 | > 256000 | 500 | > 32 | > 256000 |  |  |  |  |  |
| CCNC(=O)Nc1cc2cccc(C)c2cn1 | 32000 | 1000 | > 32 | 128000 | 8000 | 32 (≈ 140 µM) | > 256000 |  |  |  |  |  |
| CCNC(=O)Nc1nccc2ccccc12 |  | > 200000 |  |  |  |  |  | Active |  |  |  |  |
| CCNC(=O)Nc1cc2c(-c3ccncc3)ccc(-c3cccnc3)c2cn1 | 2000 |  |  | > 256000 | 125 | > 16 | > 256000 |  |  |  |  |  |
| CCNC(=O)Nc1nccs1 |  | > 200000 |  |  |  |  |  | Active |  |  |  |  |
| CCNC(=O)Nc1cc2c(-c3ccnc(C)c3)ccc(COC(=O)N3CCNCC3)c2cn1 |  |  |  |  | 8 | 2 (≈ 4.46 µM) | 500 |  | 0 | 1.9 | 8.1 |  |
| CCNC(=O)Nc1nc2ccncc2s1 |  | 20000 |  |  |  |  |  | Active |  |  |  |  |
| CCNC(=O)Nc1cc2c(-c3cccnc3)cccc2cn1 | 32000 | 1000 | > 32 | 128000 | 8000 | > 32 | > 256000 |  |  |  |  |  |
| CCNC(=O)Nc1nc2ccccc2s1 |  | 20000 |  |  |  |  |  | Active |  |  |  |  |
| CCNC(=O)Nc1cc2c(-c3ccncc3)ccc(CNC(=O)OCCNCC(C)(C)C)c2cn1 |  |  |  |  | 8 | 4 (≈ 8.36 µM) | 8000 |  | 25 | 2.6 | 8.7 |  |
| CCNC(=O)Nc1cc2c(-c3ccnc(C)c3)ccc(COC(=O)N[C@@H]3CCNC[C@H]3F)c2cn1 (relative stereo) |  |  |  |  | 8 | 2 (≈ 4.16 µM) | 125 |  | 9 | 2.2 | 7.7 |  |
| CCNC(=O)Nc1cc2c(-c3cccnc3)ccc(C)c2cn1 | 2000 | < 200 | > 32 | > 256000 | 125 | 2 (≈ 6.53 µM) | > 256000 |  |  |  |  |  |
| CCNC(=O)Nc1cc2c(-c3ccnc(C)c3)ccc(COC(=O)NC3CCNCC3)c2cn1 |  |  |  |  | 8 | 16 (≈ 34.6 µM) | 500 |  | 2 | 0.8 | 9.8 |  |
| CCNC(=O)Nc1cc2c(-c3ccncc3)ccc(Oc3cccnc3)c2cn1 | 125 |  |  | 8000 | 30 | 0.25 (≈ 0.649 µM) | 2000 |  |  |  |  |  |
| CCNC(=O)Nc1nc2c(s1)CNCC2 |  | 200000 |  |  |  |  |  | Active |  |  |  |  |
| CCNC(=O)Nc1nc2c(s1)CCCC2 |  | 200000 |  |  |  |  |  | Active |  |  |  |  |
| CCNC(=O)Nc1cc2c(-c3ccnc(C)c3)ccc(CNC(=O)C3CC3)c2cn1 |  |  |  |  | < 4 | 0.06 (≈ 0.149 µM) | 2000 |  | 75 | 3.4 |  |  |

| Structure (SMILES) | IC50 [1] [nM] | IC50 [2] [nM] | MIC (Escherichia coli [3]) [µg/mL] | IC50 [4] [nM] | IC50 (DNA gyrase) [nM] | MIC (Staphylococcus aureus [5]) [µg/mL] | IC50 [6] [nM] | inhibition (Escherichia coli [7]) | inhibition at 0.05 h, 10 µM (hERG (KCNH2)) [%] | logD [8] | pKa [9] | Activity (Staphylococcus aureus [10]) [deltalog10CFU] |
| --- | --- | --- | --- | --- | --- | --- | --- | --- | --- | --- | --- | --- |
| CCNC(=O)Nc1cnc2ccccc2n1 |  | 20000 |  |  |  |  |  | Active |  |  |  |  |
| CCNC(=O)Nc1cc2c(-c3ccncc3)ccc(CNC(=O)OCCO)c2cn1 |  |  |  |  | < 4 | 2 (≈ 4.88 µM) | 500 |  | 0 | 2 |  |  |
| CCNC(=O)Nc1cc2c(-c3ccncc3)ccc(CNC(=O)OC(C)C)c2cn1 |  |  |  |  | < 4 | 0.25 (≈ 0.614 µM) | 500 |  | 63 | 3.7 |  |  |
| CCNC(=O)Nc1cc2c(-c3ccncc3)ccc(CNC(=O)OCCN3CCOCC3)c2cn1.Cl |  |  |  |  | < 4 | 4 | 500 |  | 0 | 2.3 | 6.3 |  |
| CCNC(=O)Nc1cc2c(-c3ccncn3)ccc(C)c2cn1 |  | < 200 | 4 (≈ 13 µM) | 32000 | 500 | 4 (≈ 13 µM) | 32000 |  |  |  |  |  |
| CCNC(=O)Nc1cc2c(-c3ccncc3)ccc(CNC(=O)OC)c2cn1 |  |  |  |  | < 4 | 0.125 (≈ 0.329 µM) | 500 |  | 41 | 2.7 |  |  |
| CCNC(=O)Nc1cc2c(-c3ccnc(C)c3)ccc(C)c2cn1 | 125 | < 200 | 4 (≈ 12.5 µM) | 8000 | 30 | 0.5 (≈ 1.56 µM) | 8000 |  |  |  |  |  |
| CCNC(=O)Nc1cc2c(-c3ccnc(C)c3)ccc(COC(=O)N3CCN(CC4CC4)CC3)c2cn1.Cl |  |  |  |  | 8 | 1 | 500 |  | 74 | 3.6 | 7.4 |  |
| CCNC(=O)Nc1cc2c(-c3ccnc(C)c3)ccc(Cc3cccnc3)c2cn1.Cl | 125 |  |  | 8000 | 30 | 0.5 | 2000 |  |  |  |  |  |
| CCNC(=O)Nc1nc2c(s1)NC(=O)CC2 |  | 20000 |  |  |  |  |  | Active |  |  |  |  |
| CCNC(=O)Nc1ccc2ccccc2n1 |  | 70000 |  |  |  |  |  | Active |  |  |  |  |
| CCNC(=O)Nc1cc2c(-c3ccnc(C)c3)ccc(Cn3ccnn3)c2cn1 | 30 |  |  | 8000 | 8 | 0.25 (≈ 0.645 µM) | 2000 |  |  |  |  | -0.6 |
| CCNC(=O)Nc1cc2c(-c3ccnc(C)c3)ccc(COC(=O)N[C@@H]3CCNC[C@@H]3F)c2cn1 (relative stereo) |  |  |  |  | 8 | 4 (≈ 8.32 µM) | 125 |  | 8 | 1.5 | 8.1 |  |
| CCNC(=O)Nc1cc2c(-c3ccnc(C)c3)ccc(CNC(=O)CCOC)c2cn1 |  |  |  |  | 8 | 0.5 (≈ 1.19 µM) | 2000 |  | 0 | 2.6 |  |  |
| CCNC(=O)Nc1cc2c(-c3ccncc3)ccc(Nc3cccnc3)c2cn1 | 30 |  |  | 500 | 8 | 0.06 (≈ 0.156 µM) | 125 |  |  |  |  |  |
| CCNC(=O)Nc1cc2c(-c3ccnc(C)c3)ccc(Nc3cccc(C(=O)O)c3)c2cn1 |  |  |  | 500 | 8 | 0.5 (≈ 1.13 µM) | 125 |  |  |  |  |  |
| CCNC(=O)Nc1ncc2ccccc2n1 |  | > 200000 |  |  |  |  |  | Active |  |  |  |  |
| CCNC(=O)Nc1cc2c(-c3ccnc(C)c3)ccc(CNC(=O)OC3CCNCC3(F)F)c2cn1 (centres undefined) |  |  |  |  | 8 | 0.5 (≈ 1 µM) | 2000 |  | 8 | 3.1 | 6.5 |  |
| CCNC(=O)Nc1cc2c(-c3ccc(C#N)cc3)ccc(C)c2cn1 | 125 | < 200 | > 32 | > 256000 | 30 | > 32 | > 256000 |  |  |  |  |  |
| CCNC(=O)Nc1cc2ccccc2cn1 |  | 20000 | > 32 | > 256000 | 128000 | > 32 | > 256000 | Active |  |  |  |  |
| CCNC(=O)Nc1cc2c(-c3ccnc(C)c3)ccc(Cc3cccc(C(=O)O)c3)c2cn1 | 30 |  |  | > 256000 | 8 | 0.5 (≈ 1.14 µM) | 128000 |  |  |  |  | -0.3 |
